Results: ChEMBL document CHEMBL6092221, “Discovery of a Novel Macrocyclic Noncovalent CDK7 Inhibitor for Cancer Therapy” (J Med Chem, 2024)

Assays:
[1] = Half life in human OVCAR-3 cells xenografted in female Balb/c nude mouse plasma at 5 mg/kg, po administered once daily; assay type: ADME, organism-based
Cytochrome P450 2C9 = Cytochrome P450 2C9 (Homo sapiens, UniProt P11712); experiment: Inhibition of CYP2C9 (unknown origin); assay type: ADME
[2] = Volume of distribution at steady state in mouse at 1 mg/kg, iv; assay type: ADME, organism-based; settings: in vivo, read-out: Vdss
Mus musculus = experiment: Downregulation of Myc protein in female Balb/c nude mouse xenografted with human HCC70 cells administered once daily for 7 days; assay type: functional; settings: dose 2-10 mg/kg, time 7.0 day
[3] = Drug concentration in rat small intestine at 5 mg/kg, po measured after 8 hrs; assay type: ADME, organism-based; settings: read-out: Ct
[4] = Half life in human OVCAR-3 cells xenografted in female Balb/c nude mouse plasma at 20 mg/kg, po administered once daily; assay type: ADME, organism-based
[5] = molecular target: Serine/threonine-protein kinase TAO1 (Homo sapiens, UniProt Q7L7X3); experiment: Inhibition of TAOK1 (unknown origin)
Sequence of Serine/threonine-protein kinase TAO1 (Q7L7X3 whole entry): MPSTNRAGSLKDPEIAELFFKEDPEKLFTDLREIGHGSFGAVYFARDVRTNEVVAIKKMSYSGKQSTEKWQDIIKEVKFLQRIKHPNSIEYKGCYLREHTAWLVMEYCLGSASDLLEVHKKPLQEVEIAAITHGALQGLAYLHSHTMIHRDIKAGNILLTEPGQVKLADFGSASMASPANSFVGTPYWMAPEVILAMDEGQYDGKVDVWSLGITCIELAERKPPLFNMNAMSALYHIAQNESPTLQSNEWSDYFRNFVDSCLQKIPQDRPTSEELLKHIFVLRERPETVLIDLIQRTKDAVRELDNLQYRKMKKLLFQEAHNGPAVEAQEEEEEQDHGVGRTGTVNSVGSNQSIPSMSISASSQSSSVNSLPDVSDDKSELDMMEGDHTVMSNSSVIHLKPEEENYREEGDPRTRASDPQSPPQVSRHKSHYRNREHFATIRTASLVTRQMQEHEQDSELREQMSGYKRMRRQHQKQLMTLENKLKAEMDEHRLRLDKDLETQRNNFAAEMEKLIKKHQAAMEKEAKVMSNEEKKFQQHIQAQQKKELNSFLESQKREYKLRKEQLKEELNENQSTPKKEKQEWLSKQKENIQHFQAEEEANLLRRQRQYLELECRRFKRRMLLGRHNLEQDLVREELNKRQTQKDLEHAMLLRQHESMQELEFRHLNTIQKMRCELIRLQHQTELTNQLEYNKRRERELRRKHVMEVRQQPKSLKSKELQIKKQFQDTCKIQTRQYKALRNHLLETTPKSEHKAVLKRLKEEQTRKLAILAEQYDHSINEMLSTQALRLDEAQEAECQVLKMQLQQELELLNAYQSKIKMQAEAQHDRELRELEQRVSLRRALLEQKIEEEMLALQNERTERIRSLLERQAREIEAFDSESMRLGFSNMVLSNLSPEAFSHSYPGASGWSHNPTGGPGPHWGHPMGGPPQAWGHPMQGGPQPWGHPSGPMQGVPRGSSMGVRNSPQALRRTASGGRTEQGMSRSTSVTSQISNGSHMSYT

[6] = Permeability in human Caco-2 cells; assay type: ADME, cell-based; settings: read-out: permeability
[7] = Oral bioavailability in dog at 2 mg/kg; assay type: ADME, organism-based, Canis lupus familiaris; settings: in vivo
[8] = AUC(0 to t) in female Balb/c nude mouse at 5 mg/kg, po; assay type: ADME, organism-based; settings: in vivo
Cytochrome P450 2C19 = Cytochrome P450 2C19 (Homo sapiens, UniProt P33261); experiment: Inhibition of CYP2C19 (unknown origin); assay type: ADME
Sequence of Cytochrome P450 2C19 (P33261 whole entry): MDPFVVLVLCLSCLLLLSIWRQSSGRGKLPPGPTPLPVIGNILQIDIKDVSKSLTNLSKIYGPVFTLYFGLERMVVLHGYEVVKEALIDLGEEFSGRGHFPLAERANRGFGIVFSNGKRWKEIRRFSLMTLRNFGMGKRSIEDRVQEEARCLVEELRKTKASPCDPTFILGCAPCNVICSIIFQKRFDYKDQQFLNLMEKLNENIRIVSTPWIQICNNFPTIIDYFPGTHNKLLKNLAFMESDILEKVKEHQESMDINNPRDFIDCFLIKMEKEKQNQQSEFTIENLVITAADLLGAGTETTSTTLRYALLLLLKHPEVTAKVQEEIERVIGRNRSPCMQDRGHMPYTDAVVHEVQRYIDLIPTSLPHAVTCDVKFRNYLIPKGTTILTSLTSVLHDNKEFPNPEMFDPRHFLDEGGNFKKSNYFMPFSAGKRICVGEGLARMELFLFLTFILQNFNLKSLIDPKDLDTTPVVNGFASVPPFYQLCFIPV

[9] = Drug concentration in rat plasma at 5 mg/kg, po measured after 0.5 hrs; assay type: ADME, organism-based
[10] = Cmax in dog at 2 mg/kg, po; assay type: ADME, organism-based, Canis lupus familiaris; settings: in vivo
[11] = Clearance in dog at 0.2 mg/kg, iv; assay type: ADME, organism-based, Canis lupus familiaris; settings: in vivo
CDK4/Cyclin D3 = CDK4/Cyclin D3 (Homo sapiens, UniProt P11802); experiment: Inhibition of CDK4/Cyclin D3 (unknown origin); assay type: protein-complex assay
Sequence of CDK4/Cyclin D3 (P11802 whole entry): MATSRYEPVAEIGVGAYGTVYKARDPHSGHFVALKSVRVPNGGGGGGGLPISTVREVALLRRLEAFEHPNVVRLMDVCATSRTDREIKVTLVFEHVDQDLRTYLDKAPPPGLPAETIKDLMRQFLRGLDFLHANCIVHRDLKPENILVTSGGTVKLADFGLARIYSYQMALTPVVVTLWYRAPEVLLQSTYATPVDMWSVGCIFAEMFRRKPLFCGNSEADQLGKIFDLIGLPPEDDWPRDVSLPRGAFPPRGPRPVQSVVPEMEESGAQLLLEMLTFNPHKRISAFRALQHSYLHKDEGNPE
Sequence of CDK4/Cyclin D3 (P30281 whole entry, further chain): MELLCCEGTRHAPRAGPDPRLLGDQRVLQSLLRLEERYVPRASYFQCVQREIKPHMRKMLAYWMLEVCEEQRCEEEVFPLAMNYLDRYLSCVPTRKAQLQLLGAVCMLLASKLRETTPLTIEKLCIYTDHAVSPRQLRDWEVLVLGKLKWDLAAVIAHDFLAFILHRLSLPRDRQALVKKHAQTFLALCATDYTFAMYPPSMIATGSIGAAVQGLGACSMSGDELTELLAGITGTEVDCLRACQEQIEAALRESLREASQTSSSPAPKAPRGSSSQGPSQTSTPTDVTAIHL

HCC70 [12] = experiment: cells; settings: Homo sapiens, HCC70, 72 h
Description: Antiproliferative activity against human HCC70 cells assessed as inhibition of cell proliferation incubated for 72 hrs by celltiter-glo assay

[13] = Metabolic stability in rat liver microsomes assessed as intrinsic clearance; assay type: ADME, Microsome; settings: read-out: CLH
[14] = Cmax in rat at 5 mg/kg, po; assay type: ADME, organism-based; settings: in vivo
[15] = Cmax in human OVCAR-3 cells xenografted in female Balb/c nude mouse plasma at 10 mg/kg, po administered once daily; assay type: ADME, organism-based
[16] = Cmax in human OVCAR-3 cells xenografted in female Balb/c nude mouse plasma at 5 mg/kg, po administered once daily; assay type: ADME, organism-based
[17] = molecular target: Cyclin-dependent kinase 9 (Homo sapiens, UniProt P50750); experiment: Inhibition of CDK9 (unknown origin)
Sequence of Cyclin-dependent kinase 9 (P50750 whole entry): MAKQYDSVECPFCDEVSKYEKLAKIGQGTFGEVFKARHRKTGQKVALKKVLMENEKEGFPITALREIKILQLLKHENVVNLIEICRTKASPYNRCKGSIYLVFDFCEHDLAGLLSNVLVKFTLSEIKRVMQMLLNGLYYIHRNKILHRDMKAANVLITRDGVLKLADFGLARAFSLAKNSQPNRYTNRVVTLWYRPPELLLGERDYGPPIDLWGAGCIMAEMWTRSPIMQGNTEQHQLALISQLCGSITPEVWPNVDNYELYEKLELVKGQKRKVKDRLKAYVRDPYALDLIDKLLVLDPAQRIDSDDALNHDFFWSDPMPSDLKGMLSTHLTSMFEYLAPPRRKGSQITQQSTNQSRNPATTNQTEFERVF

[18] = Half life in female Balb/c nude mouse at 5 mg/kg, po; assay type: ADME, organism-based; settings: in vivo
HCC70 [19] = experiment: Antitumor activity against human HCC70 cells xenografted in female nu/nu mouse assessed as tumor growth inhibition at 1 mg/kg, po administered once daily and measured for 4 weeks; assay type: functional; settings: HCC70, 672 h, read-out: TGI
[20] = Toxicity in female nu/nu mouse xenografted with human HCC70 cells assessed as body weight loss at 1 to 10 mg/kg, po administered once daily and measured for 4 weeks; assay type: organism-based; settings: in vivo, 672 h, dose 1-10 mg/kg
[21] = Clearance in female Balb/c nude mouse at 1 mg/kg, iv; assay type: ADME, organism-based; settings: in vivo

Sequence of Cytochrome P450 2C9 (P11712 whole entry): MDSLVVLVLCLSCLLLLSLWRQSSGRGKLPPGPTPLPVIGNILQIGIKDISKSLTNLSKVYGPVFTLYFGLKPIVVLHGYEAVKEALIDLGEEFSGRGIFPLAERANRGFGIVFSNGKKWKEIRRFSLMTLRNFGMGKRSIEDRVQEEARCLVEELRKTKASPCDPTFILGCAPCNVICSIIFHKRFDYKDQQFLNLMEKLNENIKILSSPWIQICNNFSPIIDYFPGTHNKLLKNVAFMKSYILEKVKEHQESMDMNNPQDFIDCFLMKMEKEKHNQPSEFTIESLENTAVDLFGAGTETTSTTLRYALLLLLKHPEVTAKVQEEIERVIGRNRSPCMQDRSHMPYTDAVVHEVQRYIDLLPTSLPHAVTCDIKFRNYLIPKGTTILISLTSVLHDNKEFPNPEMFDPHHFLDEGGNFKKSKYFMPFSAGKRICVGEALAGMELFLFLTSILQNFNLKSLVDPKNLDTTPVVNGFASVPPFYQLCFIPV

Structure (SMILES): CN1CC(F)(F)CCN(C)[C@H]2CC[C@@H](C2)Nc2ncc(C(F)(F)F)c(n2)-c2c[nH]c3c(P(C)(C)=O)c(ccc23)C1=O
- half-life [1]: 2.8 h
- IC50 (Cytochrome P450 2C9): 41900 nM
- Vd [2]: 1.7 L/kg
- Activity (Mus musculus): Dose-dependent-effect
- concentration at 8 h [3]: 67 ng/g
- half-life [4]: 3.4 h
- IC50 [5]: 546 nM
- Papp [6]: 3.69 ×10⁻⁶ cm/s
- bioavailability [7]: 147%
- AUC(0-t) [8]: 938 ng·h/mL
- IC50 (Cytochrome P450 2C19): 30900 nM
- concentration at 0.5 h [9]: 33.9 ng/mL
- Cmax [10]: 6620 ng/mL
- clearance [11]: 1.2 mL/min/kg
- IC50 (CDK4/Cyclin D3): 13.1 nM
- IC50 (HCC70 [12]): 24.6 nM
- CLint scaled [13]: 44.9 mL/min/kg
- Cmax [14]: 165 ng/mL
- Cmax [15]: 580 ng/mL
- Cmax [16]: 400 ng/mL
- IC50 [17]: 258 nM
- half-life [18]: 4.3 h
- inhibition in vivo at 1 mg/kg (HCC70 [19]): 35.5%
- Activity [20]: Non-toxic
- clearance [21]: 52.6 mL/min/kg
